Measured values taken from EP3952873B1 (priority 2019, dated 2020).
“Also recorded” adds a separate entry of the source.

Key:
GABAB receptor = target: T1, GABAB receptor (Rattus norvegicus, UniProt Q9Z0U4); test: GABAB binding assay with [3H]GABA, rat brain synaptic membranes; conditions: at 100 µM
T1 construct: from tissue; host or cells: rat brain synaptic membranes
From the text: (§1) To assess affinity of JON-11 for the GABAB receptor, we employed a GABAB binding assay using rat brain synaptic membranes (Wellendorph et al., 2005). […] B) JON-11 was further assessed for functional activity using CHO cells stably expressing GABAB(1b,2) receptors (Rajalu et al., 2015).

DTA mouse model = DTA mouse model of narcolepsy (EEG/EMG, cataplexy); assay type: in vivo; conditions: after 8-11 days of chronic administration, 100 mg/kg i.p.
Experimental: Using the DTA mouse model (Tabuchi et al., 2014) we determined changes in sleep-wake EEG/EMG patterns (including cataplexy) at different time points (1 day and 8-11 days) under the influence of JON-11. After drug cessation day 14, EEG/EMG changes were mapped up to day 33. Under anesthesia with isoflurane (2% to 2.5% in O2) electrodes were placed in the scull and neck muscles of the mice. After 5-10 days recovery the electrodes are connected to a recording system, and EEG/EMG signals are recorded with synchronised video recordings. From the data, sleep/wake parameters and cataplexy episodes are scored and calculated. Analyses were performed by an observer blinded to the treatment groups.

[1] = assay type: in vitro ADME, mouse; conditions: during the metabolic stability study
Experimental: Metabolic stability analysis was performed on a Bruker Avance Ultra High Performance Liquid Chromatography (UHPLC) (Bruker Daltonik, Bremen, Germany) equipped with a CTC-PAL-xt autosampler with cooled sample compartments (10 °C) and a column oven held at 40 °C. The UHPLC eluate was directed to a Bruker Evoq Elite triple quad-ropole MS equipped with a heated electrospray ionization source operated in positive ionization mode. Separation of 15 µL sample was obtained using a Phenomenex (Phenomenex, Torrance, CA, USA) Kinetex XB-C18 column (50 mm × 2.1 mm i.d., 1.7 µm particle size) equipped with a guard column. The analytes were separated using a solvent system consisting of water/acetonitrile (95:5, v/v) (eluent A) and water/acetonitrile (5:95, v/v) (eluent B); both acidified with 0.1% formic acid. The eluent flow rate was maintained at 0.4 mL/min with the following gradient elution profile: 0 min: 0% B; 5 min: 100% B; 6 min: 100% B, followed by three min equilibration at 0% B. Two ion transitions were monitored for all analytes and internal standard.
The mouse liver microsome assay was performed by transferring 25 µL of a 20 µM solution of the test compound (0.5% DMSO), dissolved in potassium phosphate monobasic buffer (pH 7.4) containing 3 mM MgCl2, to 9 wells in a microtiter plate. To each well, […] of a 0.5 mg/mL mouse liver (Sigma Aldrich) in buffer was added, and the microtiter plate were pre-incubated for 5 min at 37 °C in a plate shaker at 600 rpm. After pre-incubation, 50 µL 37 °C NADPH regenerating system, consisting of 2 mM NADP+, 10mM glucose-6-phosphate, and 2 U/mL glucose-6-phosphate dehydrogenase dissolved in buffer, was added to start the assay. In triplicates, immediately after adding the NADPH solution, 75 µL was transferred to an Eppendorf tube, containing […] ice-cold acetonitrile with 400 ng/mL internal standard (7). Similarly, samples were prepared after 30 min and 60 min incubation at 37 °C. The samples were vortexed for 30 seconds and centrifuged at 16,000 × g for 10 minutes before analyzing the supernatant. The individual analyte responses were normalized to the internal standard. Diazepam was used as positive control.
The mouse […] assay was performed by transferring 75 µL of a 10 µM solution of the test compound (0.5% DMSO), dissolved in PBS buffer (pH 7.4), to 9 wells in a microtiter plate. To each well, 75 µL mouse plasma, harvested from in-house mice into K2-EDTA tubes and centrifuged at 1,600 × g, was added. […]
The metabolic stabilities of JON-11 and the prodrugs 1a, 8-12, 19 and 20 were determined in vitro in rat plasma and rat liver microsomes. […] The corresponding loss of prodrug compounds and formation of parent drug JON-11 was determined by UHPLC-MS.

in vivo = test: in vivo; design: species or system mice; conditions: male, C57BL/6JRj, mouse, ip, 10 mg/kg
Experimental: To evaluate the ability of pro-JON-11 (10) and JON-11 to penetrate the blood-brain barrier, a brain-to-plasma distribution ratio (B/P ratio) was obtained. All subjects were male C57BL/6JRj mice (24-26 g, Janvier Labs, France) housed in groups of three-four with ad libitum access to food and water. The mice were maintained under diurnal conditions (12-h light/dark cycle with lights on at 7 AM) in a temperature (22±1 °C) and humidity-controlled room (50±10%). Ethical permission for the procedures used in this in vivo study was granted by the Danish Animal Experiments Inspectorate.
Compounds were dissolved in PEG-400 (Sigma) at 20% of the final required volume. The final volume was then made up by 10% (w/v) hydroxypropyl-beta-cyclodextrin (Sigma Aldrich) in sterile saline. The solution was sonicated for 5 min. The JON-11 solution was pH-adjusted to 7.4 with 0.2% 2M NaOH.
Both compounds were injected i.p. at a dose of 10 mg/kg (n=3 for each compound). […] After 30 min, the animals were sacrificed by decapitation, trunk blood was collected in EDTA-coated tubes and the brain was gently removed. Blood and tissues were temporarily stored on ice until plasma and brain homogenate preparation. Blood plasma was separated from cells by centrifugation for 10 min at 1,500 x g at 4 °C and plasma harvested. […]
Plasma and brain exposure of JON-11 and pro-JON-11 were evaluated in male mice. […]

GABAB(1b,2) receptors = target: T2, GABAB(1b,2) receptors (Homo sapiens, UniProt Q9UBS5); test: GABAB functional assay in CHO cells; assay type: cell-based; conditions: CHO cells stably expressing GABAB(1b,2), concentrations up to 300 µM
T2 construct: expressed in transfected cells
From the text: as §1

T2 sequence (Q9UBS5 1-844 isoform Q9UBS5-2): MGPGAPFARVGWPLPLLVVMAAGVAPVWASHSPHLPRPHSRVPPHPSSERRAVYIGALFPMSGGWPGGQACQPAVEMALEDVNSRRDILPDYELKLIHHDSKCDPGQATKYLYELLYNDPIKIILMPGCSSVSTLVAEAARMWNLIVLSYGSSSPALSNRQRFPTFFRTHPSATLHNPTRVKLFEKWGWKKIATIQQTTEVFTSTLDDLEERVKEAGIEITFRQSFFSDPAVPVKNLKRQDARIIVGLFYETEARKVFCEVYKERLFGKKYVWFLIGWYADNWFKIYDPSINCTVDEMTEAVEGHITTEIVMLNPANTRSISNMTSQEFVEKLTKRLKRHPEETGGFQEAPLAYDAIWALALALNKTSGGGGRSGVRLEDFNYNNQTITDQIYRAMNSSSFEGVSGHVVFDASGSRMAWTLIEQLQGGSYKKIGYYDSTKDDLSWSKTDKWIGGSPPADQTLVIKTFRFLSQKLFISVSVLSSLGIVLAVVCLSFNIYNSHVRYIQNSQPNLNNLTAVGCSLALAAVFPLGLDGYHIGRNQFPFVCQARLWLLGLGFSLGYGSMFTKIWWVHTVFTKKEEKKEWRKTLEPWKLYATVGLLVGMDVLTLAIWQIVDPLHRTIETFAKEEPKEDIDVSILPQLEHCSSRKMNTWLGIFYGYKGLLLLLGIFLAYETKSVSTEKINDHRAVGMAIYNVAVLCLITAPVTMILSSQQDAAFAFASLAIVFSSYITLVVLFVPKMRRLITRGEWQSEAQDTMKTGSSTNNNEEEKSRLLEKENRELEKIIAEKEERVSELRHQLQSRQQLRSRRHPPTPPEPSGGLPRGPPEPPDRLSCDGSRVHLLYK
T2 sequence (O75899 42-941 partner): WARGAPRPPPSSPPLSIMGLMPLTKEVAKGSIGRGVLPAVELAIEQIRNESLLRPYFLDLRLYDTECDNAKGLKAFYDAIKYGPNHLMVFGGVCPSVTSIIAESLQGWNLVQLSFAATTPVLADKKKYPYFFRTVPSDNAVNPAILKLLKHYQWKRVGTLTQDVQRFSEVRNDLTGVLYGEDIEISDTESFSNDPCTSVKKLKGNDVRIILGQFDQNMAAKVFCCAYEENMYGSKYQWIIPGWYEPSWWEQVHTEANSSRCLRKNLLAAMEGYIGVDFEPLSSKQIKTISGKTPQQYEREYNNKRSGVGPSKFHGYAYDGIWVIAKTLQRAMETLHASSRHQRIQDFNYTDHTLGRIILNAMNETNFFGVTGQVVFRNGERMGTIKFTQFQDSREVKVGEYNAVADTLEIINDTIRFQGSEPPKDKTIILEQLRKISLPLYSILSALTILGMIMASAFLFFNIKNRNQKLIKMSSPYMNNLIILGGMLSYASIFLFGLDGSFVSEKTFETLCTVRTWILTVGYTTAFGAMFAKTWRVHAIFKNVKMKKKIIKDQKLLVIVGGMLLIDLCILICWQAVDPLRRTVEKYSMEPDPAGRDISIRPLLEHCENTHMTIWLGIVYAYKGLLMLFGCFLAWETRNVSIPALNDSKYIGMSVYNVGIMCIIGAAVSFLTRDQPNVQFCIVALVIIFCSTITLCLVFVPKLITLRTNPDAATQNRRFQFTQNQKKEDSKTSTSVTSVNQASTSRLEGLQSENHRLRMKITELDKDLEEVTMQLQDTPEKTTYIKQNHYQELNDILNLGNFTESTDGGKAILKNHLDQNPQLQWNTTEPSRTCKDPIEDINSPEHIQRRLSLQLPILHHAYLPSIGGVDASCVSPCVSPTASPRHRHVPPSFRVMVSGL
T1 sequence (Q9Z0U4 20-960): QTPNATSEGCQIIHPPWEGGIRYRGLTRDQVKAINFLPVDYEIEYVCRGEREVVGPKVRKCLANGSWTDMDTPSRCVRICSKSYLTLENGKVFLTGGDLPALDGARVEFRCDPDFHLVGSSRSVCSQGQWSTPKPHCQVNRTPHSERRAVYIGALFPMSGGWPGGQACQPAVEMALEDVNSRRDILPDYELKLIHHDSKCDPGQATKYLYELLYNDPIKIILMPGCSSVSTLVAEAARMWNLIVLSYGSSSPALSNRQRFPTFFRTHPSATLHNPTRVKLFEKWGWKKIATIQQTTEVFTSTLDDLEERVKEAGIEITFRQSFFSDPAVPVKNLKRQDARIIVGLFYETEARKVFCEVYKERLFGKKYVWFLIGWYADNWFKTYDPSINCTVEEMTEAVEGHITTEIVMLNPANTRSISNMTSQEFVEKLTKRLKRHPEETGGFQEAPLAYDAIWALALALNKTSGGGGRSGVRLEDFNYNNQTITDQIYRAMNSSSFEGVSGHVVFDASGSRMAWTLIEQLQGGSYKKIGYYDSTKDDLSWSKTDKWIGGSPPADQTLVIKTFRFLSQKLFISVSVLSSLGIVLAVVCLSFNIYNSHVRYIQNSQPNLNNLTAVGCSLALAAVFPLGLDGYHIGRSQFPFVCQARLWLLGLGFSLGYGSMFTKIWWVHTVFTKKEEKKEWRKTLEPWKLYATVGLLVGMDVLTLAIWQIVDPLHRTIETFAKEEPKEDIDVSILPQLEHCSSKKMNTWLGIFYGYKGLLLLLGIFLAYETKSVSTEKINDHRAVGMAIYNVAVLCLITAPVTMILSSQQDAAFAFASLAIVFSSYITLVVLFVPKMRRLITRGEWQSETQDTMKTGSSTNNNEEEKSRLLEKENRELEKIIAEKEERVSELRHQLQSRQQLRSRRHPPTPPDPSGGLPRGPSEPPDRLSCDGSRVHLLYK
T1 sequence (O88871 41-940 partner): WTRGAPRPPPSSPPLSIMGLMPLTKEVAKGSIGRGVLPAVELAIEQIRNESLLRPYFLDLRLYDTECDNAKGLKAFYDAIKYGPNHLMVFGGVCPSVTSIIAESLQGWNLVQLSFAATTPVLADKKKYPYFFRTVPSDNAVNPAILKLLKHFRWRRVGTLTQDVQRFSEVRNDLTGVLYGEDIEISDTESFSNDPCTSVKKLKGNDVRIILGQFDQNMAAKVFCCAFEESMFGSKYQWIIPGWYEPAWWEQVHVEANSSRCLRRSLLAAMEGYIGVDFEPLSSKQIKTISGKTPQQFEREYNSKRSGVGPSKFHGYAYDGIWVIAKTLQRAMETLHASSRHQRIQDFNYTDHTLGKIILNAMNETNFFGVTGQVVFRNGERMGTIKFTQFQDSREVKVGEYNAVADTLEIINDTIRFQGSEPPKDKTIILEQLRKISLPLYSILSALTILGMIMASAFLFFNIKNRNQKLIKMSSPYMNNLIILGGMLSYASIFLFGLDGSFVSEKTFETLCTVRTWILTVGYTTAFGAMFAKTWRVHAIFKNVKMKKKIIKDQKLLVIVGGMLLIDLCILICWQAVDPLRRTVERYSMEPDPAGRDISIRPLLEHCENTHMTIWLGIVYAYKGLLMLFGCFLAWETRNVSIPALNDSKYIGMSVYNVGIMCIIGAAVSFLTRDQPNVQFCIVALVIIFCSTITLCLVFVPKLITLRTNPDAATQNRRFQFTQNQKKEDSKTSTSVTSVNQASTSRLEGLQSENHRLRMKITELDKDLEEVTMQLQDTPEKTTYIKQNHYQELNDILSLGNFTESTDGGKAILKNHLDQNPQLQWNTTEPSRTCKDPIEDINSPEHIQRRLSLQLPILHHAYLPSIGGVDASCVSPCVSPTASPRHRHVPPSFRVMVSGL

Compound: O=C(O)Cc1cn2nc(-c3ccc(Cl)cc3)ccc2n1 [JON-11, 2-(6-(4-Chlorophenyl)imidazo[1,2-b]pyridazin-2-yl)acetic acid]
- ability to compete with [3H]GABA (GABAB receptor): no ability to compete
- number of cataplexy attacks (DTA mouse model): significantly decreases
- Chemical or enzymatic degradation [1]: not observed
- Kp at 30 min (in vivo): 0.05
- agonistic activity at recombinant GABAB receptors (GABAB(1b,2) receptors): not a GABAB agonist; also recorded: Lack of agonistic activity
